From article PMC8704606, “The Artemiside-Artemisox-Artemisone-M1 Tetrad: Efficacies against Blood Stage P. falciparum Parasites, DMPK Properties, and the Case for Artemiside” (Pharmaceutics, 2021)
Read-outs that look alike come from different tables or passages of the source.

What was measured:
[1] = Cytotoxicity (LDH assay) against HepG2 cells; format: cell-based; details: human, HepG2 cells (hepatocellular carcinoma)
Procedure: Cytotoxicity against mammalian hepatocellular carcinoma cells (HepG2 cells) was determined using the lactate dehydrogenase assay (LDH, Biovision Inc., Milpitas, CA, USA). […] Compound working solutions were prepared from 10 mM stock solutions (100% DMSO) in complete DMEM to a final DMSO (Sigma-Aldrich) conc. of <0.1% (vol/vol). […] Data analysis was performed using GraphPad Prism (version 6) software.

[2] = system: late-stage (LG) Pf NF54 gametocytes; assay: Luciferase assay, late-stage gametocytes; format: cell-based, Plasmodium falciparum; details: late-stage vs early-stage gametocytes, p < 0.05
Procedure: For screening artemisox and M1 against early- (EG) and late-stage (LG) gametocytes, the luciferase assay with transgenic NF54-pfs16-GFP-Luc and NF54-Mal8p1.16-GFP-Luc parasite lines was used. With this assay, stage-specificity of gametocytocidal action was established (Table 2). Dose-response curves are in Figures S1d,e and S2d in the Supplementary Material 1. […] As was observed previously for artemisone and artemiside, dose responses for artemisox and M1 could not be obtained at 48 h against late-stage gametocytes.
The same reference compounds with the exception of CQ were used for the early- and late-stage gametocyte assays. Gametocytocidal activity was determined using the transgenic NF54-pfs16-GFP-Luc and NF54-Mal8p1.16-GFP-Luc reporter lines. Compounds were initially screened for activity at a fixed drug concentration of 1 µM, with dose responses subsequently determined using 2-fold serial drug dilutions for 48 h against early-stage gametocytes (day 5 post-induction population, ≥95% stages II–III) and 10-fold serial drug dilutions for 48 h or 72 h against late-stage gametocytes (day 10 post-induction population, ≥90% late-stage [stages IV–V]) (2 to 3% gametocytemia, 2% hematocrit) at 37 °C under 90% N2, 5% CO2, and 5% O2 [6]. No drug washout steps were performed during the drug incubation periods prior to the assays. In all cases, an interference assay was run in parallel to eliminate the possibility of false positives arising through compound interference with the luciferase readout.

[3] = Pharmacokinetics and metabolism after iv and po administration; format: in vivo
Procedure: The plasma concentration-time profiles of the parent compounds and metabolites after administration iv and po to male C57/BL6 mice are presented in Figure 2, Figure 3 and Figure 4. Artemiside was quantifiable up to 24 h in all mice dosed iv and up to 7 h po (lower limit of quantitation LLOQ = 1.6 ng/mL or 0.004 μM) (Figure 2). […] For both artemiside and artemisox, the metabolite artemisone was quantifiable up to 3 h in both the po and iv groups (Figure 2 and Figure 3). Thereby it is confirmed that artemiside is rapidly converted via artemisox into artemisone. Artemisone itself was quantifiable up to three hours post dose (Figure 4). The mean circulating concentrations for the compounds and their metabolites are presented in Table S3a–f in the Supplementary Material 1. The metabolite M1 was also detected upon administration of artemiside, artemisox, and artemisone, but it was not quantified here; chromatograms indicating the presence of M1 are illustrated in Figure S3a–c in the Supplementary Material 1. In addition, the plasma concentration-time curves for artemiside and its metabolites artemisone and M1 following iv and po dosing in the same murine model are presented and discussed in detail elsewhere (cf. Figure 4 in reference).
All work was conducted with prior approval of the animal ethics committee of the University of Cape Town in accordance with the South African National Standards for the Care and Use of Animals for Scientific Purposes and guidelines from the South African Department of Health. The requirements and methods for the pharmacokinetics in vivo involving po and iv drug administration, sample extraction, analyses of samples by LC-MS/MS, and data analyses are described elsewhere. For the animal experiments and formulations, the compounds were dissolved in a 10:60:30 mixture of N,N-dimethylacetamide-polypropylene glycol-polyethylene glycol for intravenous dosing (iv) at 5 mg/kg. For the oral dose (po), compounds were individually dosed as a suspension in 0.5% (w/v) hydroxypropylmethylcellulose in water with 0.2% Tween80 at 50 mg/kg to male C57/BL6 mice (n = 3 for each group). For PK sampling, blood samples were collected at predetermined times (0.08, 0.25, 0.5, 1, 3, 5, 7, and 24 h) for both po and iv dosing via tail bleeding into heparinized tubes, centrifuged, and the plasma samples were stored at −80 °C until extraction. For preparation of samples, the frozen plasma samples were thawed and 15 μL was extracted by liquid–liquid extraction using a universal buffer (pH8) containing 10 ng/mL of the internal standard and ethyl acetate, and the extract was vortexed and centrifuged. Calibration standards and quality controls were extracted following the same procedure. Supernatants were dried down, reconstituted, and injected onto the column for LC-MS/MS analysis using an AB SCIEX 5500 QTRAP instrument coupled to an Agilent 1260 HPLC detection system as previously described.

**Q.** Which IC50 at 24 h [1] does the source give for `C[C@H]1[C@H](N2CCS(=O)(=O)CC2)O[C@@H]2O[C@@]3(C)CC[C@H]4[C@H](C)CC[C@@H]1[C@@]24OO3` [Artemisone 7, Artemisone] here?
**A.** Its IC50 at 24 h is > 50 µM.

**Q.** What about the “fold decrease in activity against late-stage gametocytes” value [2] of the same compound?
**A.** The value was > 20 fold.

**Q.** What about the “Mean iv circulating concentration” value ([3]; 5 h after iv 5 mg/kg artemisone 7) of the same compound?
**A.** The value was “blq”.

**Q.** And the “Mean iv circulating concentration” value ([3]; 5 h after iv 5 mg/kg artemisox 6)?
**A.** The value was “blq”.

**Q.** And the “Mean po circulating concentration” value ([3]; 5 h after po 50 mg/kg artemiside 5)?
**A.** The value was “blq”.

**Q.** And the “Mean po circulating concentration” value ([3]; 5 h after po 50 mg/kg artemisone 7)?
**A.** The value was “blq”.

**Q.** What about the “Mean iv circulating concentration” value ([3]; 7 h after iv 5 mg/kg artemiside 5) of the same compound?
**A.** The value was “blq”.

**Q.** And the “Mean iv circulating concentration” value ([3]; 7 h after iv 5 mg/kg artemisone 7)?
**A.** The value was “blq”.

**Q.** And the “Mean iv circulating concentration” value ([3]; 7 h after iv 5 mg/kg artemisox 6)?
**A.** The value was “blq”.

**Q.** And the “Mean po circulating concentration” value ([3]; 7 h after po 50 mg/kg artemiside 5)?
**A.** The value was “blq”.

**Q.** And the “Mean po circulating concentration” value ([3]; 7 h after po 50 mg/kg artemisone 7)?
**A.** Its value is “blq”.

**Q.** And the “Mean po circulating concentration” value ([3]; 7 h after po 50 mg/kg artemisox 6)?
**A.** Its value is “blq”.

**Q.** And the “Mean iv circulating concentration” value ([3]; 24 h after iv 5 mg/kg artemiside 5)?
**A.** Its value is “blq”.

**Q.** What about the “Mean iv circulating concentration” value ([3]; 24 h after iv 5 mg/kg artemisone 7) of the same compound?
**A.** The value was “blq”.

**Q.** What about the “Mean iv circulating concentration” value ([3]; 24 h after iv 5 mg/kg artemisox 6) of the same compound?
**A.** The value was “blq”.

**Q.** And the “Mean po circulating concentration” value ([3]; 24 h after po 50 mg/kg artemiside 5)?
**A.** The value was “blq”.

**Q.** And the “Mean po circulating concentration” value ([3]; 24 h after po 50 mg/kg artemisone 7)?
**A.** The value was “blq”.

**Q.** And the “Mean po circulating concentration” value ([3]; 24 h after po 50 mg/kg artemisox 6)?
**A.** The value was “blq”.

**Q.** And the “quantifiable up to, post dose” value ([3]; artemisone itself dosed, iv 5 mg/kg and po 50 mg/kg (Figure 4))?
**A.** The value was “up to three”.

**Q.** What about the t½ ([3]; iv 5 mg/kg, parent drug, mean ± SD, 5 mg/kg) of the same compound?
**A.** The t½ was 23.4 ± 4.8 min.

**Q.** What about the concentration at 0.08 h ([3]; male, C57/BL6, mouse, plasma, iv, 5 mg/kg, 0.08 h after iv 5 mg/kg artemiside 5, read-out: Mean iv circulating concentration) of the same compound?
**A.** Its concentration at 0.08 h is 117 nM.

**Q.** What about the concentration at 0.08 h ([3]; male, C57/BL6, mouse, plasma, iv, 5 mg/kg, 0.08 h after iv 5 mg/kg artemisone 7, read-out: Mean iv circulating concentration) of the same compound?
**A.** The concentration at 0.08 h was 3860 nM.

**Q.** And the concentration at 0.08 h ([3]; male, C57/BL6, mouse, plasma, iv, 5 mg/kg, 0.08 h after iv 5 mg/kg artemisox 6, read-out: Mean iv circulating concentration)?
**A.** Its concentration at 0.08 h is 1110 nM.

**Q.** And the concentration at 0.25 h ([3]; male, C57/BL6, mouse, plasma, iv, 5 mg/kg, 0.25 h after iv 5 mg/kg artemiside 5, read-out: Mean iv circulating concentration)?
**A.** Its concentration at 0.25 h is 247 nM.

**Q.** What about the concentration at 0.25 h ([3]; male, C57/BL6, mouse, plasma, iv, 5 mg/kg, 0.25 h after iv 5 mg/kg artemisone 7, read-out: Mean iv circulating concentration) of the same compound?
**A.** The concentration at 0.25 h was 2510 nM.

**Q.** And the concentration at 0.25 h ([3]; male, C57/BL6, mouse, plasma, iv, 5 mg/kg, 0.25 h after iv 5 mg/kg artemisox 6, read-out: Mean iv circulating concentration)?
**A.** The concentration at 0.25 h was 1400 nM.

**Q.** What about the concentration at 0.5 h ([3]; male, C57/BL6, mouse, plasma, iv, 5 mg/kg, 0.5 h after iv 5 mg/kg artemiside 5, read-out: Mean iv circulating concentration) of the same compound?
**A.** Its concentration at 0.5 h is 270 nM.

**Q.** And the concentration at 0.5 h ([3]; male, C57/BL6, mouse, plasma, iv, 5 mg/kg, 0.5 h after iv 5 mg/kg artemisone 7, read-out: Mean iv circulating concentration)?
**A.** Its concentration at 0.5 h is 1720 nM.

**Q.** What about the concentration at 0.5 h ([3]; male, C57/BL6, mouse, plasma, iv, 5 mg/kg, 0.5 h after iv 5 mg/kg artemisox 6, read-out: Mean iv circulating concentration) of the same compound?
**A.** The concentration at 0.5 h was 1250 nM.

**Q.** What about the concentration at 1 h ([3]; male, C57/BL6, mouse, plasma, iv, 5 mg/kg, 1 h after iv 5 mg/kg artemiside 5, read-out: Mean iv circulating concentration) of the same compound?
**A.** The concentration at 1 h was 160 nM.

**Q.** What about the concentration at 1 h ([3]; male, C57/BL6, mouse, plasma, iv, 5 mg/kg, 1 h after iv 5 mg/kg artemisone 7, read-out: Mean iv circulating concentration) of the same compound?
**A.** The concentration at 1 h was 831 nM.

**Q.** And the concentration at 1 h ([3]; male, C57/BL6, mouse, plasma, iv, 5 mg/kg, 1 h after iv 5 mg/kg artemisox 6, read-out: Mean iv circulating concentration)?
**A.** The concentration at 1 h was 659 nM.

**Q.** And the concentration at 3 h ([3]; male, C57/BL6, mouse, plasma, iv, 5 mg/kg, 3 h after iv 5 mg/kg artemiside 5, read-out: Mean iv circulating concentration)?
**A.** The concentration at 3 h was 12 nM.
